This note sets out measurements from publication PMC8550792, “Evolution of kinase polypharmacology across HSP90 drug discovery” (Cell Chemical Biology, 2021).

Holding throughout (experiment): biochemical
Type in all cases: biochemical

Assay [1] addresses T1, 382 unique human kinases (Homo sapiens, UniProt O95747).
T1 construct: purchased Reaction Biology (HotSpot contract assay)
The conditions noted are these: kinase OSR1/OXSR1, compound 10 uM; for remaining activity at 10 µM: read-out: % Enzyme Activity (relative to DMSO controls).

Assay [2] has as its target T2, 382 unique human kinases (Homo sapiens, UniProt P07949, V804L).
T2 construct: purchased Reaction Biology (HotSpot contract assay)
Particulars: RET (V804L), 10 uM; for remaining activity at 10 µM: read-out: % Enzyme Activity (relative to DMSO controls).

The target of assay [3] is T3, 382 unique human kinases (Homo sapiens, UniProt P08922, G2032R).
T3 construct: purchased Reaction Biology (HotSpot contract assay)
T3 sequence (P08922 28-2347 G2032R): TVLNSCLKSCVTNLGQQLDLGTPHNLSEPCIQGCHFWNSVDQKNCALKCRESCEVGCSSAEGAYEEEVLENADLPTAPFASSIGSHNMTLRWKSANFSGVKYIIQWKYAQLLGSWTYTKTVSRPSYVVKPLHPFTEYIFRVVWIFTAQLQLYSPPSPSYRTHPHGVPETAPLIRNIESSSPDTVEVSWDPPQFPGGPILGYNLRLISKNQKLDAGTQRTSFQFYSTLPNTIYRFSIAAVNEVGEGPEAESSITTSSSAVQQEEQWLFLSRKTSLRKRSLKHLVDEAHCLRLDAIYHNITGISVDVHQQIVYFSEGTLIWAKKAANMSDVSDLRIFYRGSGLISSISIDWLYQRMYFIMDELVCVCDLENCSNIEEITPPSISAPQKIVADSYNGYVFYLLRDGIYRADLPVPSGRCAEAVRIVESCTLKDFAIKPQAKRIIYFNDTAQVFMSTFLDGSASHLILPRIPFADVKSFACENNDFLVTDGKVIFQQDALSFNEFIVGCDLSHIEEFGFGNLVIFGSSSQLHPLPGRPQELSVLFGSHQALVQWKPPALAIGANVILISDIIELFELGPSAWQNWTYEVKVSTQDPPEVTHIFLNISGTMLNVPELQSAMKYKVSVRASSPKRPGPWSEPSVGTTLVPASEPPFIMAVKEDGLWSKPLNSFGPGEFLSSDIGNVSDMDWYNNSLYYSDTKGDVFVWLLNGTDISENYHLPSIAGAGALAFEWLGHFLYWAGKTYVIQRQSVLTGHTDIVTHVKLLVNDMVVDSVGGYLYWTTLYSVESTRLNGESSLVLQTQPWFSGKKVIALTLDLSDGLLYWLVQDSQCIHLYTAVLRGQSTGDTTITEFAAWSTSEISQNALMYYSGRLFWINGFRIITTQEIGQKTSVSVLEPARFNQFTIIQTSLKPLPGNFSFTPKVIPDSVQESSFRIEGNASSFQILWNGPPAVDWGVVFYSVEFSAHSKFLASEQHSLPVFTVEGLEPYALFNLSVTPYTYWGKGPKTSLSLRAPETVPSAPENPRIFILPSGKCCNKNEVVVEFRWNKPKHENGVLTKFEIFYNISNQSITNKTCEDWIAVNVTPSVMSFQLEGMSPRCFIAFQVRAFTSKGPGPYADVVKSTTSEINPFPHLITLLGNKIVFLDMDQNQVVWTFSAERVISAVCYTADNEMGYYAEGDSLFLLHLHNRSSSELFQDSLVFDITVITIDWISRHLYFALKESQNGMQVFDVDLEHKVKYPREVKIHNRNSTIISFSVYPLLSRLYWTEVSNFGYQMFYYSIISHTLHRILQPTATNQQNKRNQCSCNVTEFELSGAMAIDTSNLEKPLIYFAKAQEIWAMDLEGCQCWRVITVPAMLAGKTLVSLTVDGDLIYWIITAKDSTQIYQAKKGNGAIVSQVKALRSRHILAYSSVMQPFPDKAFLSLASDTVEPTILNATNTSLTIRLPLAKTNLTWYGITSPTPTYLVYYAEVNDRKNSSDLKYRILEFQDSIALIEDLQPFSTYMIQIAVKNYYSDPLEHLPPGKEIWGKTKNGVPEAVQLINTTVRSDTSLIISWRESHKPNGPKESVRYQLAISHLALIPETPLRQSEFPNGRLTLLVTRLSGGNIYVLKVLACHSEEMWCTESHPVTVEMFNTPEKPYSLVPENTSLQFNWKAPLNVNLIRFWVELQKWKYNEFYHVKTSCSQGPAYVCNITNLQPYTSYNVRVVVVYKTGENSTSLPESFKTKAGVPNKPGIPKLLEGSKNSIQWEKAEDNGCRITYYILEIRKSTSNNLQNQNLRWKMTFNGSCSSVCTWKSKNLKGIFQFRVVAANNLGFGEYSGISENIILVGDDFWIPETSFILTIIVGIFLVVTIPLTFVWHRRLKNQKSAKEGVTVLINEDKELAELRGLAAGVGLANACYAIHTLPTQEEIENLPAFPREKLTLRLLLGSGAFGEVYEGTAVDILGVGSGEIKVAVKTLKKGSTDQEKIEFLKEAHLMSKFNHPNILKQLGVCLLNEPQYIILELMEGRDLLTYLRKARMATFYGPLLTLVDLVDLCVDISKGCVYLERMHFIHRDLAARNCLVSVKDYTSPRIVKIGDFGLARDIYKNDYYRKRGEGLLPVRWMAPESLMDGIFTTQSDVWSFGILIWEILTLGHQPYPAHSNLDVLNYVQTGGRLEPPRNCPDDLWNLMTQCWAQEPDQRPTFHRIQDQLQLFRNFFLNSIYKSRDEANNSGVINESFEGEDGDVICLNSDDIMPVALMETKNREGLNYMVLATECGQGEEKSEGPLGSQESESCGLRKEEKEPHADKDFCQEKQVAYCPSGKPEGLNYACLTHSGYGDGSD
Particulars: ROS1 (G2032R), 10 uM; for remaining activity at 10 µM: read-out: % Enzyme Activity (relative to DMSO controls).

In assay [4] the target is T4, 382 unique human kinases (Homo sapiens, UniProt Q8NG66).
T4 construct: purchased Reaction Biology (HotSpot contract assay)
T4 sequence (Q8NG66 1-645): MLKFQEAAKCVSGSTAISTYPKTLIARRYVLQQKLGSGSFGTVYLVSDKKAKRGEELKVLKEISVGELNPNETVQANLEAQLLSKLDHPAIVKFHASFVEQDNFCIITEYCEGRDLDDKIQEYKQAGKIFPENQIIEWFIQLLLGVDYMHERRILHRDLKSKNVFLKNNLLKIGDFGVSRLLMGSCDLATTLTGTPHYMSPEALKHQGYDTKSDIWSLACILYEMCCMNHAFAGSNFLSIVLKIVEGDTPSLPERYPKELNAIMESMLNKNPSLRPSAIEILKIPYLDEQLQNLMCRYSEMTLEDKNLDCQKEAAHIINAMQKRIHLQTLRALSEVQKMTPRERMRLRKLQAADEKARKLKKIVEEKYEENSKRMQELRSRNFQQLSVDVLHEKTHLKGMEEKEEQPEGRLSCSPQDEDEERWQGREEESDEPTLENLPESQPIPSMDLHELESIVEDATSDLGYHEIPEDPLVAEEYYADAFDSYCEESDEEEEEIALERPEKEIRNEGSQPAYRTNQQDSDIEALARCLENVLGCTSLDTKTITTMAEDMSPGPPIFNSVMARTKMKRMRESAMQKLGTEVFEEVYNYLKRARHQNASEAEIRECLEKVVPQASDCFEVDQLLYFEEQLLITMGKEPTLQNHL
Particulars: NEK11, compound at 10 uM, duplicate values; for remaining activity at 10 µM: read-out: % Enzyme Activity (relative to DMSO controls).

The target of assay [5] is T5, 382 unique human kinases (Homo sapiens, UniProt Q86YV6).
T5 construct: purchased Reaction Biology (HotSpot contract assay)
T5 sequence (Q86YV6 1-388): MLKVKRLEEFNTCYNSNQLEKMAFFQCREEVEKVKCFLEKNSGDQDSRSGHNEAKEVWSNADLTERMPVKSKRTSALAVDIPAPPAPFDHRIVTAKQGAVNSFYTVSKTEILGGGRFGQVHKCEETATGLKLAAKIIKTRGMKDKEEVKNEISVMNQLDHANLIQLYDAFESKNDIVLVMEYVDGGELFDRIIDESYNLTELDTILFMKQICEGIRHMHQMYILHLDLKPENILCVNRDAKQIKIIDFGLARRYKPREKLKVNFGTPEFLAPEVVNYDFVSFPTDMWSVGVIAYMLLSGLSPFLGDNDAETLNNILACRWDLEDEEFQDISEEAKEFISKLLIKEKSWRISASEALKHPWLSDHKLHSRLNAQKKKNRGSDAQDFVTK
Particulars: MYLK4, [ATP] 50 µM, compound 10 uM; for remaining activity at 10 µM: read-out: % Enzyme Activity (relative to DMSO controls).

Assay [6] has as its target T6, 382 unique human kinases (Homo sapiens, UniProt Q96PY6).
T6 construct: purchased Reaction Biology (HotSpot contract assay)
T6 sequence (Q96PY6 1-1258): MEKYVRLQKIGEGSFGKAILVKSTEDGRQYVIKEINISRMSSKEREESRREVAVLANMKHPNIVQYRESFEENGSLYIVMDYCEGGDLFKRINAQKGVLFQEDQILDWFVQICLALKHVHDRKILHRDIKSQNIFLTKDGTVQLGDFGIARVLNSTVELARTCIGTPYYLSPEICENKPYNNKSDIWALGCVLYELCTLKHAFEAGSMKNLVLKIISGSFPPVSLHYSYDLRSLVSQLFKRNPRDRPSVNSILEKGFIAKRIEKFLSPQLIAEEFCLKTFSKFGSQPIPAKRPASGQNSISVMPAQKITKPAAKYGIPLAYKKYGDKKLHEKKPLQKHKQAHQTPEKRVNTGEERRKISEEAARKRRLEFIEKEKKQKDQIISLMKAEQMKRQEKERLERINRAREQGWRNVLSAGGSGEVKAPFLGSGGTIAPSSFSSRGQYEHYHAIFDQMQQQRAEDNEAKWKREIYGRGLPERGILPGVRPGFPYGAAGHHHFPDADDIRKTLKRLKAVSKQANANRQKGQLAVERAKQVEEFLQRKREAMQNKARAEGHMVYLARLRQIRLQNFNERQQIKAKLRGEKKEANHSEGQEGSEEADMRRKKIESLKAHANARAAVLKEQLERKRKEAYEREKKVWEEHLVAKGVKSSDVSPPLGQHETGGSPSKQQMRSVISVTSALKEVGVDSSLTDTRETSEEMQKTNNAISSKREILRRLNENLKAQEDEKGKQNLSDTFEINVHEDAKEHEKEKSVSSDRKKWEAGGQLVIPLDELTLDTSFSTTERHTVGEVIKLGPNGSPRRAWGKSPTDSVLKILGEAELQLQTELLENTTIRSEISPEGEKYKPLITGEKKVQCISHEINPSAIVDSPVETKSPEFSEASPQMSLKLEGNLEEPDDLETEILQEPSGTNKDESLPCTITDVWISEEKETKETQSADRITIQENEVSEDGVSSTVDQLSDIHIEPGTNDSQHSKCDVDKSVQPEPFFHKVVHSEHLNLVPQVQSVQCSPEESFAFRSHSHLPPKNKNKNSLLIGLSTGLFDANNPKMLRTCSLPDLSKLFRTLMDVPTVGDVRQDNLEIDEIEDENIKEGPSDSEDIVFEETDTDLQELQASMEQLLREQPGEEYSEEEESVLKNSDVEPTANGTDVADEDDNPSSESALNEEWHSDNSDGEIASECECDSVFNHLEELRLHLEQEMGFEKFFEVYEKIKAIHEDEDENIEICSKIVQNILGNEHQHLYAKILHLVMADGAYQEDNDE
The conditions noted are these: NEK1, 10 uM; for remaining activity at 10 µM: read-out: % Enzyme Activity (relative to DMSO controls).

The target in assay [7] is T7, 382 unique human kinases (Homo sapiens, UniProt Q96SB4).
T7 construct: purchased Reaction Biology (HotSpot contract assay)
T7 sequence (Q96SB4 whole entry): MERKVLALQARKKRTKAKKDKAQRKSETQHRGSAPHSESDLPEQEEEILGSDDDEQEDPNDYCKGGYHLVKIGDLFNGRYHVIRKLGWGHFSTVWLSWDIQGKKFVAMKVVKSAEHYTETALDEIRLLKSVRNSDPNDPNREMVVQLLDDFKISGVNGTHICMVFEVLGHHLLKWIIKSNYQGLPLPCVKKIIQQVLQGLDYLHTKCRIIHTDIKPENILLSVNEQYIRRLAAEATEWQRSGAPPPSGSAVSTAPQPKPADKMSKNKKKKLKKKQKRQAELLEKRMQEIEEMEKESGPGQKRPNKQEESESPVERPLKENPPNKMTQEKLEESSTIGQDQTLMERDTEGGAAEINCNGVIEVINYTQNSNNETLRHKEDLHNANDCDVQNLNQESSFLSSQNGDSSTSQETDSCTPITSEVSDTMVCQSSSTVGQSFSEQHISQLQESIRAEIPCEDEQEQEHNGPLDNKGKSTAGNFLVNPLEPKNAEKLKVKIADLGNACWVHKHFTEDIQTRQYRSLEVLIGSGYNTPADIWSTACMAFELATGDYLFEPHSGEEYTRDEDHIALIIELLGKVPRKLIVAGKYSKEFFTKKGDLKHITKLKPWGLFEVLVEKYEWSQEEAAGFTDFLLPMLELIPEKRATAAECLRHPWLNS
The conditions noted are these: SRPK1, 10 uM; for remaining activity at 10 µM: read-out: % Enzyme Activity (relative to DMSO controls).

Assay [8] has as its target T8, 382 unique human kinases (Homo sapiens, UniProt Q9HC98).
T8 construct: purchased Reaction Biology (HotSpot contract assay)
Particulars: NEK6, 10 uM; for remaining activity at 10 µM: read-out: % Enzyme Activity (relative to DMSO controls).

T2 sequence (P07949 29-1114 V804L): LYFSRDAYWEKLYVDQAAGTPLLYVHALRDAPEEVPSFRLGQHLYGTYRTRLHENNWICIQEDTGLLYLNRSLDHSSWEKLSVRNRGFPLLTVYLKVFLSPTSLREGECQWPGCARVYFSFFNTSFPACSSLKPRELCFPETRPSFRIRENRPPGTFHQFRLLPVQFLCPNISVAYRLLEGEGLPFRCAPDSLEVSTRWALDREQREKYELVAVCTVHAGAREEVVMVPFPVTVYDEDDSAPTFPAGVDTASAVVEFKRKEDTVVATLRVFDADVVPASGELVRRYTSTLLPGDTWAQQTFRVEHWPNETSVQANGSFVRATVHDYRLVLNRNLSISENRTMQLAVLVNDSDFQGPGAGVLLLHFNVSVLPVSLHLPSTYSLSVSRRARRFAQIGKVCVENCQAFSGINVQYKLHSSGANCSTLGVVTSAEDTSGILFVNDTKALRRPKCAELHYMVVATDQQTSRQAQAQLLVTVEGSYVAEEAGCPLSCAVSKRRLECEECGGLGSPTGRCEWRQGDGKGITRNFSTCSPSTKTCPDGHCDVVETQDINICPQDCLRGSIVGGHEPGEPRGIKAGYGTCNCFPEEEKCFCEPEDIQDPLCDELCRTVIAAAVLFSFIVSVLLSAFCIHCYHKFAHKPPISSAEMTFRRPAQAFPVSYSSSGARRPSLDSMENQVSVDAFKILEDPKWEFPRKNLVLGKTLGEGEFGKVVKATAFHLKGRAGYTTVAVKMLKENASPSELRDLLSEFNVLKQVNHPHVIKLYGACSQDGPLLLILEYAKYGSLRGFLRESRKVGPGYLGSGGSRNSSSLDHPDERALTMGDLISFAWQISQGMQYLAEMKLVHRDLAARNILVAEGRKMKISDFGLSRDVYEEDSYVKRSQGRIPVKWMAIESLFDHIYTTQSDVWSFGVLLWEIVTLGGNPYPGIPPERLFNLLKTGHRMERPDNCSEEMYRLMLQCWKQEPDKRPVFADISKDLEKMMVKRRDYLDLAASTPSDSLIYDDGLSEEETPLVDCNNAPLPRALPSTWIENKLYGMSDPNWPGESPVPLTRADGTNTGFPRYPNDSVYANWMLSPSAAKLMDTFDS
T1 sequence (O95747 whole entry): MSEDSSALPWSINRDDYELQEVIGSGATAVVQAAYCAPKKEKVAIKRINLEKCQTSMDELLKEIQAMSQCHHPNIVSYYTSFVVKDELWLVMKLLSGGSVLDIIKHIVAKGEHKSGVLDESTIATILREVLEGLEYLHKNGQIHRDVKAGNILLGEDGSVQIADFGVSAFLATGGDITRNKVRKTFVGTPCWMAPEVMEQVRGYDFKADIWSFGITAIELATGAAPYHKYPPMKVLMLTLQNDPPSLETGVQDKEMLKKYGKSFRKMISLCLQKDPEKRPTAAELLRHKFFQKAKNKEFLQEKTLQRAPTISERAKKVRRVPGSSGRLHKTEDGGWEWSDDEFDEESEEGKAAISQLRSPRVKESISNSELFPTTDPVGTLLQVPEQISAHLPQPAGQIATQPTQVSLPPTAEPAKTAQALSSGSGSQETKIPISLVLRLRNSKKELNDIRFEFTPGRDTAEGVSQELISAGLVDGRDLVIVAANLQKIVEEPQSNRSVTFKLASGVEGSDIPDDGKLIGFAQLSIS
T8 sequence (Q9HC98 whole entry): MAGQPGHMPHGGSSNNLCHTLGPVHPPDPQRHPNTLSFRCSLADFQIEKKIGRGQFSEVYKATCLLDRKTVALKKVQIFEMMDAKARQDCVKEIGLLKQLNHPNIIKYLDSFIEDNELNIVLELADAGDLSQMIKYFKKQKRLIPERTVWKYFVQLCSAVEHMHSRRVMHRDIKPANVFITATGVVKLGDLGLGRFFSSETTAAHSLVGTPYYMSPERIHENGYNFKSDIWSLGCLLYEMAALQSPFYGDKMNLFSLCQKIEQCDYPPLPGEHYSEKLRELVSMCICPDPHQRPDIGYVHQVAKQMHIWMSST

For `CC(C)c1cc(-c2n[nH]c(=O)n2-c2ccc3c(ccn3C)c2)c(O)cc1O` [Ganetespib (STA9090)], the remaining activity at 10 µM on 382 unique human kinases [1] was 82.7%; on 382 unique human kinases [2], 78.5%; at 382 unique human kinases [3], 66.8%; on 382 unique human kinases [4], 117%.
On to `CC(C)c1cc(-c2n[nH]c(=O)n2-c2ccc3c(ccn3C)c2)c(O)cc1O` [Ganetespib], for which the remaining activity at 10 µM was 60.1% on 382 unique human kinases [5], 95.7% at 382 unique human kinases [6], 90.7% at 382 unique human kinases [7] and 107% on 382 unique human kinases [8].
For the compound `CCNC(=O)c1noc(-c2cc(C(C)C)c(O)cc2O)c1-c1ccc(CN2CCOCC2)cc1` [Luminespib (AUY-922)], the “% Enzyme Activity (relative to DMSO controls)” value on 382 unique human kinases [1] was determined as 102.56%; on 382 unique human kinases [2], 104.44%; on 382 unique human kinases [3] it was 106.59%; at 382 unique human kinases [4], 100.52%. The remaining activity at 10 µM at 382 unique human kinases [1] was 103%; at 382 unique human kinases [2], 106%; on 382 unique human kinases [3], 109%; on 382 unique human kinases [4], 102%.
As to `CCNC(=O)c1noc(-c2cc(C(C)C)c(O)cc2O)c1-c1ccc(CN2CCOCC2)cc1` [Luminespib], the “% Enzyme Activity (relative to DMSO controls)” value stood at 95.56% on 382 unique human kinases [5], 102.76% on 382 unique human kinases [6], 101.35% at 382 unique human kinases [7] and 94.17% on 382 unique human kinases [8]. For the same compound, the remaining activity at 10 µM on 382 unique human kinases [5] was determined as 96.7%; on 382 unique human kinases [6] it was 110%; on 382 unique human kinases [7], 101%; on 382 unique human kinases [8] it was 95.4%.
